Assay results published in US20150284674A1, “CAMPYLOBACTER BACTERIA AND DETECTION” (priority 2012, published 2015).
Values after ≈ are worked out from the molar mass of the structure shown. Values joined by “and” are separate entries in the source; they are usually repeats but may differ in a detail not shown here. Identical values can stand only once. “Also recorded” adds a separate entry of the source.

Assays:
[1] = system: Campylobacter novel strains; test: Antimicrobial susceptibility testing by agar dilution method (MIC); conditions: for Distribution (%) of MIC (μg/ml) 0.03: % of novel strains with MIC 0.03 μg/ml; for Distribution (%) of MIC (μg/ml) 0.06: % of novel strains with MIC 0.06 μg/ml; for Distribution (%) of MIC (μg/ml) 0.13: % of novel strains with MIC 0.13 μg/ml; for Distribution (%) of MIC (μg/ml) 0.25: % of novel strains with MIC 0.25 μg/ml; for Distribution (%) of MIC (μg/ml) 1: % of novel strains with MIC 1 μg/ml; for Distribution (%) of MIC (μg/ml) 2: % of novel strains with MIC 2 μg/ml; for Distribution (%) of MIC (μg/ml) 4: % of novel strains with MIC 4 μg/ml; for Distribution (%) of MIC (μg/ml) 8: % of novel strains with MIC 8 μg/ml; for Distribution (%) of MIC (μg/ml) 32: % of novel strains with MIC 32 μg/ml; for Distribution (%) of MIC (μg/ml) 64: % of novel strains with MIC 64 μg/ml;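 as to all read-outs here: agar dilution MIC on HBA, used in place of the BSAC-recommended Iso-sensitest agar, across a panel of 14 antimicrobials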
Experimental: Antimicrobial susceptibility testing was performed using the agar dilution method for the Campylobacter novel strains against 14 antimicrobials. […] As the strains were unable to grow on the Iso-sensitest agar (ISA) recommended by the BSAC guidelines, HBA (Table 1) was used as an alternative media.

[2] = system: novel campylobacter isolates; test: Disc diffusion susceptibility to nalidixic acid and cephalothin (30 μg discs); type: cell-based; conditions: for Susceptibility to (30 μg disc): disc diffusion; as to Susceptibility to (30 μg disc): key: S, susceptible; R, resistant
C. avium sp. Nov = conditions: taxon 1: C. avium sp. Nov; cited from earlier work
C. canadensis = conditions: taxon 2: C. canadensis; cited from earlier work
C. coli = conditions: taxon 3: C. coli; cited from earlier work
C. concisus = conditions: taxon 4: C. concisus; cited from earlier work
C. cuniculurom = conditions: taxon 5: C. cuniculurom; cited from earlier work
C. curvus = conditions: taxon 6: C. curvus; cited from earlier work
C. fetus subsp. fetus = conditions: taxon 7: C. fetus subsp. fetus; cited from earlier work
[3] = system: C. fetus subsp. venerealis; conditions: taxon 8: C. fetus subsp. venerealis; cited from earlier work
C. gracilis = conditions: taxon 9: C. gracilis; cited from earlier work
C. helveticus = conditions: taxon 10: C. helveticus; cited from earlier work
C. hominus = conditions: taxon 11: C. hominus; cited from earlier work
[4] = system: C. hyointestinalis subsp. hyointestinalis; conditions: taxon 12: C. hyointestinalis subsp. hyointestinalis; cited from earlier work
[5] = system: C. hyointestinalis subsp. lawsonii; conditions: taxon 13: C. hyointestinalis subsp. lawsonii; cited from earlier work
C. insulaenigrae = conditions: taxon 14: C. insulaenigrae; cited from earlier work
C. jejuni subsp. Doylei = conditions: taxon 15: C. jejuni subsp. Doylei; cited from earlier work
C. jejuni subsp. Jejuni = conditions: taxon 16: C. jejuni subsp. Jejuni; cited from earlier work
C. lari = conditions: taxon 18: C. lari; cited from earlier work
C. mucosalis = conditions: taxon 19: C. mucosalis; cited from earlier work
C. rectus = conditions: taxon 20: C. rectus; cited from earlier work
C. showae = conditions: taxon 21: C. showae; cited from earlier work
C. sputorum = conditions: taxon 22: C. sputorum; cited from earlier work
C. upsaliensis = conditions: taxon 23: C. upsaliensis; cited from earlier work
[6] = Campylobacter novel strains, agar dilution on HBA

CC1(C)S[C@@H]2[C@H](NC(=O)[C@H](N)c3ccccc3)C(=O)N2[C@H]1C(=O)O [Ampicillin]
MIC50 ([1]; Campylobacter): 1 µg/mL (≈ 2.86 µM)
MIC90 ([1]; Campylobacter): 2 µg/mL (≈ 5.72 µM)

CCN1CCN(C(=O)N[C@@H](C(=O)N[C@@H]2C(=O)N3C(C(=O)O)=C(CSc4nnnn4C)CS[C@H]23)c2ccc(O)cc2)C(=O)C1=O [Cefoperazone]
MIC50 ([1]; Campylobacter): 64 µg/mL (≈ 99.1 µM)
MIC90 ([1]; Campylobacter): 64 µg/mL (≈ 99.1 µM)

CC(=O)OCC1=C(C(=O)O)N2C(=O)[C@@H](NC(=O)Cc3cccs3)[C@H]2SC1 [Cephalothin]
susceptibility / resistance of the novel Campylobacter strains, in words ([2]; disc diffusion tests, 30 μg disc, novel Campylobacter strains overall): variable resistance; also recorded: some were sensitive
Susceptibility to (30 μg disc) ([2]; strain Farm 1 2009/1): R
Susceptibility to (30 μg disc) ([2]; strain Farm 1 2009/2): R
Susceptibility to (30 μg disc) ([2]; strain Farm 1 2011/1): R
Susceptibility to (30 μg disc) ([2]; strain Farm 1 2011/2): R
Susceptibility to (30 μg disc) ([2]; strain Farm 1 2011/3): R
Susceptibility to (30 μg disc) ([2]; strain Farm 1 2011/4): R
Susceptibility to (30 μg disc) ([2]; strain Farm 1 2011/5): R
Susceptibility to (30 μg disc) ([2]; strain Farm 1 2011/6): R
Susceptibility to (30 μg disc) ([2]; strain Farm 2 2011/1): S
Susceptibility to (30 μg disc) ([2]; strain Farm 2 2011/2): S
Susceptibility to (30 μg disc) ([2]; strain Farm 2 2011/3): S
Susceptibility to (30 μg disc) ([2]; strain Farm 2 2011/4): S
Susceptibility to (30 μg disc) ([2]; strain Farm 3 2011/1): S
Susceptibility to (30 μg disc) ([2]; strain Farm 3 2011/2): S
Susceptibility to (30 μg disc) ([2]; strain Farm 3 2011/3): S
Susceptibility to (30 μg disc) ([2]; strain Farm 4 2011/1): S
Susceptibility to (30 μg disc) ([2]; strain Farm 4 2011/2): S
Susceptibility to (30 μg disc) ([2]; strain Farm 4 2011/3): S
resistance (share of strains positive) ([2]; taxon A: Campylobacter novel (n=23)): V (V, 26-74% of strains positive)
resistance (share of strains positive) (C. avium sp. Nov): + (+, 90-100% of strains positive)
resistance (share of strains positive) (C. canadensis): − (−, 0-10% of strains positive)
resistance (share of strains positive) (C. coli): + (+, 90-100% of strains positive)
resistance (share of strains positive) (C. concisus): − (−, 0-10% of strains positive)
resistance (share of strains positive) (C. cuniculurom): (+) ((+), 75-89% strains positive)
resistance (share of strains positive) (C. curvus): − (−, 0-10% of strains positive)
resistance (share of strains positive) (C. fetus subsp. fetus): − (−, 0-10% of strains positive)
resistance (share of strains positive) [3]: − (−, 0-10% of strains positive)
resistance (share of strains positive) (C. gracilis): − (−, 0-10% of strains positive)
resistance (share of strains positive) (C. helveticus): − (−, 0-10% of strains positive)
resistance (share of strains positive) (C. hominus): − (−, 0-10% of strains positive)
resistance (share of strains positive) [4]: (−) ((−), 11-25% of strains positive)
resistance (share of strains positive) [5]: − (−, 0-10% of strains positive)
resistance (share of strains positive) (C. insulaenigrae): + (+, 90-100% of strains positive)
resistance (share of strains positive) (C. jejuni subsp. Doylei): − (−, 0-10% of strains positive)
resistance (share of strains positive) (C. jejuni subsp. Jejuni): + (+, 90-100% of strains positive)
resistance (share of strains positive) (C. lari): + (+, 90-100% of strains positive)
resistance (share of strains positive) (C. mucosalis): − (−, 0-10% of strains positive)
resistance (share of strains positive) (C. rectus): − (−, 0-10% of strains positive)
resistance (share of strains positive) (C. showae): − (−, 0-10% of strains positive)
resistance (share of strains positive) (C. sputorum): − (−, 0-10% of strains positive)
resistance (share of strains positive) (C. upsaliensis): (−) ((−), 11-25% of strains positive)
MIC50 ([1]; Campylobacter): 32 µg/mL (≈ 80.7 µM)
MIC90 ([1]; Campylobacter): 32 µg/mL (≈ 80.7 µM)

O=C(N[C@H](CO)[C@H](O)c1ccc([N+](=O)[O-])cc1)C(Cl)Cl [Chloramphenicol]
MIC50 ([1]; Campylobacter): 4 µg/mL (≈ 12.4 µM)
MIC90 ([1]; Campylobacter): 8 µg/mL (≈ 24.8 µM)

O=C(O)c1cn(C2CC2)c2cc(N3CCNCC3)c(F)cc2c1=O [Ciprofloxacin]
MIC50 ([1]; Campylobacter): 0.06 µg/mL (≈ 0.181 µM)
MIC90 ([1]; Campylobacter): 0.06 µg/mL (≈ 0.181 µM)

CC[C@H]1OC(=O)[C@H](C)[C@@H](O[C@H]2C[C@@](C)(OC)[C@@H](O)[C@H](C)O2)[C@H](C)[C@@H](O[C@@H]2O[C@H](C)C[C@H](N(C)C)[C@H]2O)[C@](C)(O)C[C@@H](C)C(=O)[C@H](C)[C@@H](O)[C@]1(C)O [Ertythromycin, Erythromycin]
MIC50 ([1]; Campylobacter): 1 µg/mL (≈ 1.36 µM)
MIC90 ([1]; Campylobacter): 2 µg/mL (≈ 2.73 µM)

NC[C@H]1O[C@H](O[C@H]2[C@H](O)[C@@H](O[C@H]3O[C@H](CO)[C@@H](O)[C@H](N)[C@H]3O)[C@H](N)C[C@@H]2N)[C@H](O)[C@@H](O)[C@@H]1O [Kanamycin]
MIC50 ([1]; Campylobacter): 4 µg/mL (≈ 8.26 µM)
MIC90 ([1]; Campylobacter): 4 µg/mL (≈ 8.26 µM)

[H]/N=C(/N)N[C@H]1[C@H](O)[C@@H](O)[C@H](O[C@@H]2O[C@@H](C)[C@](O)(C=O)[C@H]2O[C@@H]2O[C@@H](CO)[C@H](O)[C@@H](O)[C@@H]2NC)[C@@H](N/C(N)=N\[H])[C@@H]1O [Streptomycin]
MIC50 ([1]; Campylobacter): 1 µg/mL (≈ 1.72 µM)
MIC90 ([1]; Campylobacter): 1 µg/mL (≈ 1.72 µM)

CN(C)[C@@H]1C(O)=C(C(N)=O)C(=O)[C@@]2(O)C(O)=C3C(=O)c4c(O)cccc4[C@@](C)(O)[C@H]3C[C@@H]12 [Tetracycline]
MIC50 ([1]; Campylobacter): 1 µg/mL (≈ 2.25 µM)
MIC90 ([1]; Campylobacter): 64 µg/mL (≈ 144 µM)

C=C[C@]1(C)C[C@@H](OC(=O)CSCCN(CC)CC)[C@]2(C)[C@H](C)CC[C@]3(CCC(=O)[C@H]32)[C@@H](C)[C@@H]1O [Tiamulin]
MIC50 ([1]; Campylobacter): 2 µg/mL (≈ 4.05 µM)
MIC90 ([1]; Campylobacter): 2 µg/mL (≈ 4.05 µM)

Colistin
Distribution (%) of MIC (μg/ml) 0.03 ([1]; agar dilution on HBA): 0%
Distribution (%) of MIC (μg/ml) 0.06 ([1]; agar dilution on HBA): 0%
Distribution (%) of MIC (μg/ml) 0.13 ([1]; agar dilution on HBA): 0%
Distribution (%) of MIC (μg/ml) 0.25 ([1]; agar dilution on HBA): 0%
Distribution (%) of MIC (μg/ml) 0.50 ([1]; % of novel strains with MIC 0.50 μg/ml, agar dilution on HBA): 0%
Distribution (%) of MIC (μg/ml) 1 ([1]; agar dilution on HBA): 0%
Distribution (%) of MIC (μg/ml) 2 ([1]; agar dilution on HBA): 0%
Distribution (%) of MIC (μg/ml) 4 ([1]; agar dilution on HBA): 8.70%
Distribution (%) of MIC (μg/ml) 8 ([1]; agar dilution on HBA): 73.91%
Distribution (%) of MIC (μg/ml) 32 ([1]; agar dilution on HBA): 13.04%
Distribution (%) of MIC (μg/ml) 64 ([1]; agar dilution on HBA): 0%
MIC50 [1, 6]: 8 µg/mL
MIC90 [1, 6]: 32 µg/mL

Gentamycin
Distribution (%) of MIC (μg/ml) 0.03 ([1]; agar dilution on HBA): 0%
Distribution (%) of MIC (μg/ml) 0.06 ([1]; agar dilution on HBA): 0%
Distribution (%) of MIC (μg/ml) 0.13 ([1]; agar dilution on HBA): 0%
Distribution (%) of MIC (μg/ml) 1 ([1]; agar dilution on HBA): 0%
Distribution (%) of MIC (μg/ml) 2 ([1]; agar dilution on HBA): 0%
Distribution (%) of MIC (μg/ml) 4 ([1]; agar dilution on HBA): 0%
Distribution (%) of MIC (μg/ml) 8 ([1]; agar dilution on HBA): 0%
Distribution (%) of MIC (μg/ml) 32 ([1]; agar dilution on HBA): 0%
Distribution (%) of MIC (μg/ml) 64 ([1]; agar dilution on HBA): 0%
MIC50 [1, 6]: 0.5 µg/mL and 0.50 µg/mL
MIC90 [1, 6]: 0.5 µg/mL and 0.50 µg/mL

Polymyxin B
Distribution (%) of MIC (μg/ml) 0.03 ([1]; agar dilution on HBA): 0%
Distribution (%) of MIC (μg/ml) 0.06 ([1]; agar dilution on HBA): 0%
Distribution (%) of MIC (μg/ml) 0.13 ([1]; agar dilution on HBA): 0%
Distribution (%) of MIC (μg/ml) 0.25 ([1]; agar dilution on HBA): 0%
Distribution (%) of MIC (μg/ml) 1 ([1]; agar dilution on HBA): 0%
Distribution (%) of MIC (μg/ml) 2 ([1]; agar dilution on HBA): 0%
Distribution (%) of MIC (μg/ml) 4 ([1]; agar dilution on HBA): 21.74%
Distribution (%) of MIC (μg/ml) 8 ([1]; agar dilution on HBA): 56.52%
Distribution (%) of MIC (μg/ml) 32 ([1]; agar dilution on HBA): 8.70%
Distribution (%) of MIC (μg/ml) 64 ([1]; agar dilution on HBA): 0%
MIC50 [1, 6]: 8 µg/mL
MIC90 [1, 6]: 16 µg/mL
